Values quoted from earlier work in article PMC12181400, “Leveraging viral genome sequences and machine learning models for identification of potentially selective antiviral agents” (Communications Chemistry, 2025).
Where a name gives a salt, the structure may show the parent alone. Read-outs that look alike come from different tables or passages of the source.

How the values were obtained:
Details in all cases: cited from earlier work
[1] = tested on: cell viability (tox21-car-agonist-p1)
[2] = tested on: cell viability (tox21-ar-mda-kb2-luc-antagonist-p2)
[3] = tested on: cell viability (tox21-ar-mda-kb2-luc-agonist-p3)
[4] = tested on: cell viability (tox21-car-antagonist-p1)
[5] = tested on: cell viability (tox21-are-bla-p1)
[6] = tested on: cell viability (tox21-ap1-agonist-p1)
[7] = curve rank −9 to 9, 0 = inactive, ref NCATS Tox21 public data browser

## Cc1cc2c(cc1S(N)(=O)=O)S(=O)(=O)CCC2 [Meticrane]
[1]; [7]
  tox21-car-agonist-p1-viability (curve rank): 0
[2]; [7]
  tox21-ar-mda-kb2-luc-antagonist-p2-viability (curve rank): 0
[3]; [7]
  tox21-ar-mda-kb2-luc-agonist-p3-viability (curve rank): 0
[4]; [7]
  tox21-car-antagonist-p1-viability (curve rank): 0
[5]; [7]
  tox21-are-bla-p1-viability (curve rank): 0
[6]; [7]
  tox21-ap1-agonist-p1-viability (curve rank): 0

## O=C(Oc1ccccc1C(=O)O)c1ccccc1O [Salsalate]
[1]
  tox21-car-agonist-p1-viability (curve rank): 0
[2]
  tox21-ar-mda-kb2-luc-antagonist-p2-viability (curve rank): 0
[3]
  tox21-ar-mda-kb2-luc-agonist-p3-viability (curve rank): 0
[4]
  tox21-car-antagonist-p1-viability (curve rank): 0
[5]
  tox21-are-bla-p1-viability (curve rank): 0
[6]
  tox21-ap1-agonist-p1-viability (curve rank): 0

## COc1cc(NS(=O)(=O)c2ccc(N)cc2)nc(OC)n1 [Sulfadimethoxine]
[1]
  tox21-car-agonist-p1-viability (curve rank): 0
[2]
  tox21-ar-mda-kb2-luc-antagonist-p2-viability (curve rank): 0
[3]
  tox21-ar-mda-kb2-luc-agonist-p3-viability (curve rank): 0
[4]
  tox21-car-antagonist-p1-viability (curve rank): 0
[5]
  tox21-are-bla-p1-viability (curve rank): 0
[6]
  tox21-ap1-agonist-p1-viability (curve rank): 0

## NS(=O)(=O)c1cc2c(cc1Cl)NC(C1CC3C=CC1C3)NS2(=O)=O (stereo not drawn) [Cyclothiazide]
[1]; [7]
  tox21-car-agonist-p1-viability (curve rank): 0
[2]; [7]
  tox21-ar-mda-kb2-luc-antagonist-p2-viability (curve rank): 0
[3]; [7]
  tox21-ar-mda-kb2-luc-agonist-p3-viability (curve rank): 0
[4]; [7]
  tox21-car-antagonist-p1-viability (curve rank): 0
[5]; [7]
  tox21-are-bla-p1-viability (curve rank): 0
[6]; [7]
  tox21-ap1-agonist-p1-viability (curve rank): 0

## CC1=C2[C@H]3OC(=O)[C@@H](C)[C@@H]3CC[C@@]2(C)C=CC1=O [alpha-Santonin]
[1]; [7]
  tox21-car-agonist-p1-viability (curve rank): 0
[2]; [7]
  tox21-ar-mda-kb2-luc-antagonist-p2-viability (curve rank): 0
[3]; [7]
  tox21-ar-mda-kb2-luc-agonist-p3-viability (curve rank): 0
[4]; [7]
  tox21-car-antagonist-p1-viability (curve rank): 0
[5]; [7]
  tox21-are-bla-p1-viability (curve rank): 0
[6]; [7]
  tox21-ap1-agonist-p1-viability (curve rank): 0

## CC(N/C(=N\C#N)Nc1ccncc1)C(C)(C)C (stereo not drawn) [Pinacidil monohydrate]
[1]
  tox21-car-agonist-p1-viability (curve rank): 0
[2]
  tox21-ar-mda-kb2-luc-antagonist-p2-viability (curve rank): 0
[3]
  tox21-ar-mda-kb2-luc-agonist-p3-viability (curve rank): 0
[4]
  tox21-car-antagonist-p1-viability (curve rank): 0
[5]
  tox21-are-bla-p1-viability (curve rank): 0
[6]
  tox21-ap1-agonist-p1-viability (curve rank): 0

## Cc1nc(C)c(Cl)c(O)c1Cl [Clopidol]
[1]; [7]
  tox21-car-agonist-p1-viability (curve rank): 0
[2]; [7]
  tox21-ar-mda-kb2-luc-antagonist-p2-viability (curve rank): 0
[3]; [7]
  tox21-ar-mda-kb2-luc-agonist-p3-viability (curve rank): 0
[4]; [7]
  tox21-car-antagonist-p1-viability (curve rank): 0
[5]; [7]
  tox21-are-bla-p1-viability (curve rank): 0
[6]; [7]
  tox21-ap1-agonist-p1-viability (curve rank): -0.67

## Cc1ncc([N+](=O)[O-])n1CC(O)CCl (stereo not drawn) [Ornidazole]
[1]
  tox21-car-agonist-p1-viability (curve rank): 0
[2]
  tox21-ar-mda-kb2-luc-antagonist-p2-viability (curve rank): 0
[3]
  tox21-ar-mda-kb2-luc-agonist-p3-viability (curve rank): 0
[4]
  tox21-car-antagonist-p1-viability (curve rank): 0
[5]
  tox21-are-bla-p1-viability (curve rank): 0
[6]
  tox21-ap1-agonist-p1-viability (curve rank): 0

## COc1cc(C(=O)NCCCCCC(=O)O)cc(OC)c1OC [Capobenic acid]
[1]; [7]
  tox21-car-agonist-p1-viability (curve rank): 0
[2]; [7]
  tox21-ar-mda-kb2-luc-antagonist-p2-viability (curve rank): 0
[3]; [7]
  tox21-ar-mda-kb2-luc-agonist-p3-viability (curve rank): 0
[4]; [7]
  tox21-car-antagonist-p1-viability (curve rank): 0
[5]; [7]
  tox21-are-bla-p1-viability (curve rank): 0
[6]; [7]
  tox21-ap1-agonist-p1-viability (curve rank): 0

## CC(=O)CCCCn1c(=O)c2c(ncn2C)n(C)c1=O [Pentoxifylline]
[1]
  tox21-car-agonist-p1-viability (curve rank): 0
[2]
  tox21-ar-mda-kb2-luc-antagonist-p2-viability (curve rank): 0
[3]
  tox21-ar-mda-kb2-luc-agonist-p3-viability (curve rank): 0
[4]
  tox21-car-antagonist-p1-viability (curve rank): 0
[5]
  tox21-are-bla-p1-viability (curve rank): 0
[6]
  tox21-ap1-agonist-p1-viability (curve rank): 0

## CCN(CC)CCNC(=O)c1cc(Br)c(N)cc1OC [Bromopride]
[1]
  tox21-car-agonist-p1-viability (curve rank): 0
[2]
  tox21-ar-mda-kb2-luc-antagonist-p2-viability (curve rank): 0
[3]
  tox21-ar-mda-kb2-luc-agonist-p3-viability (curve rank): 0
[4]
  tox21-car-antagonist-p1-viability (curve rank): 0
[5]
  tox21-are-bla-p1-viability (curve rank): 0
[6]
  tox21-ap1-agonist-p1-viability (curve rank): 0

## C#CCN(C)[C@H](C)Cc1ccccc1 [Selegiline hydrochloride]
[1]; [7]
  tox21-car-agonist-p1-viability (curve rank): 0
[2]; [7]
  tox21-ar-mda-kb2-luc-antagonist-p2-viability (curve rank): 0
[3]; [7]
  tox21-ar-mda-kb2-luc-agonist-p3-viability (curve rank): 0
[4]; [7]
  tox21-car-antagonist-p1-viability (curve rank): 0
[5]; [7]
  tox21-are-bla-p1-viability (curve rank): 0
[6]; [7]
  tox21-ap1-agonist-p1-viability (curve rank): 0

## CCOP(=S)(OCC)Oc1cc(C)nc(C(C)C)n1 [Diazinon]
[1]; [7]
  tox21-car-agonist-p1-viability (curve rank): 0
[2]; [7]
  tox21-ar-mda-kb2-luc-antagonist-p2-viability (curve rank): 0
[3]; [7]
  tox21-ar-mda-kb2-luc-agonist-p3-viability (curve rank): 0
[4]; [7]
  tox21-car-antagonist-p1-viability (curve rank): 0
[5]; [7]
  tox21-are-bla-p1-viability (curve rank): 0
[6]; [7]
  tox21-ap1-agonist-p1-viability (curve rank): 0

## Nc1ccccc1C(=O)O [Anthranilic acid]
[1]; [7]
  tox21-car-agonist-p1-viability (curve rank): 0
[2]; [7]
  tox21-ar-mda-kb2-luc-antagonist-p2-viability (curve rank): 0
[3]; [7]
  tox21-ar-mda-kb2-luc-agonist-p3-viability (curve rank): 0
[4]; [7]
  tox21-car-antagonist-p1-viability (curve rank): 0
[5]; [7]
  tox21-are-bla-p1-viability (curve rank): 0
[6]; [7]
  tox21-ap1-agonist-p1-viability (curve rank): 0

## Cc1scc2c1N(C(=O)CN1CCN(C)CC1)c1ccccc1NC2=O [Telenzepine]
[1]
  tox21-car-agonist-p1-viability (curve rank): 0
[2]
  tox21-ar-mda-kb2-luc-antagonist-p2-viability (curve rank): 0
[3]
  tox21-ar-mda-kb2-luc-agonist-p3-viability (curve rank): 0
[4]
  tox21-car-antagonist-p1-viability (curve rank): 0
[5]
  tox21-are-bla-p1-viability (curve rank): 0
[6]
  tox21-ap1-agonist-p1-viability (curve rank): 0

## Cc1ncsc1CCCl [Clomethiazole]
[1]; [7]
  tox21-car-agonist-p1-viability (curve rank): 0
[2]; [7]
  tox21-ar-mda-kb2-luc-antagonist-p2-viability (curve rank): 0
[3]; [7]
  tox21-ar-mda-kb2-luc-agonist-p3-viability (curve rank): 0
[4]; [7]
  tox21-car-antagonist-p1-viability (curve rank): 0
[5]; [7]
  tox21-are-bla-p1-viability (curve rank): 0
[6]; [7]
  tox21-ap1-agonist-p1-viability (curve rank): 0

## CC(=O)Nc1ccccc1 [Acetanilide]
[1]
  tox21-car-agonist-p1-viability (curve rank): 0
[2]
  tox21-ar-mda-kb2-luc-antagonist-p2-viability (curve rank): 0
[3]
  tox21-ar-mda-kb2-luc-agonist-p3-viability (curve rank): 0
[4]
  tox21-car-antagonist-p1-viability (curve rank): 0
[5]
  tox21-are-bla-p1-viability (curve rank): 0
[6]
  tox21-ap1-agonist-p1-viability (curve rank): 0

## O=C(CCNNC(=O)c1ccncc1)NCc1ccccc1 [Nialamide]
[1]
  tox21-car-agonist-p1-viability (curve rank): 0
[2]
  tox21-ar-mda-kb2-luc-antagonist-p2-viability (curve rank): 0
[3]
  tox21-ar-mda-kb2-luc-agonist-p3-viability (curve rank): 0
[4]
  tox21-car-antagonist-p1-viability (curve rank): 0
[5]
  tox21-are-bla-p1-viability (curve rank): 0
[6]
  tox21-ap1-agonist-p1-viability (curve rank): 0

## CN1Cc2c(N)cccc2C(c2ccccc2)C1 (stereo not drawn) [Nomifensine maleate]
[1]
  tox21-car-agonist-p1-viability (curve rank): 0
[2]
  tox21-ar-mda-kb2-luc-antagonist-p2-viability (curve rank): 0
[3]
  tox21-ar-mda-kb2-luc-agonist-p3-viability (curve rank): 0
[4]
  tox21-car-antagonist-p1-viability (curve rank): 0
[5]
  tox21-are-bla-p1-viability (curve rank): 0
[6]
  tox21-ap1-agonist-p1-viability (curve rank): 0

## NC(=O)N1c2ccccc2C=Cc2ccccc21 [Carbamazepine]
[1]
  tox21-car-agonist-p1-viability (curve rank): 0
[2]
  tox21-ar-mda-kb2-luc-antagonist-p2-viability (curve rank): 0
[3]
  tox21-ar-mda-kb2-luc-agonist-p3-viability (curve rank): 0
[4]
  tox21-car-antagonist-p1-viability (curve rank): 0
[5]
  tox21-are-bla-p1-viability (curve rank): 0
[6]
  tox21-ap1-agonist-p1-viability (curve rank): 0

## COCCc1ccc(OCC(O)CNC(C)C)cc1 (stereo not drawn) [Metoprolol tartrate]
[1]; [7]
  tox21-car-agonist-p1-viability (curve rank): 0
[2]; [7]
  tox21-ar-mda-kb2-luc-antagonist-p2-viability (curve rank): 0
[3]; [7]
  tox21-ar-mda-kb2-luc-agonist-p3-viability (curve rank): 0
[4]; [7]
  tox21-car-antagonist-p1-viability (curve rank): 0
[5]; [7]
  tox21-are-bla-p1-viability (curve rank): 0
[6]; [7]
  tox21-ap1-agonist-p1-viability (curve rank): 0

## CC(=O)N[C@@H](CC(C)C)C(=O)O [Acetyl-L-leucine]
[1]
  tox21-car-agonist-p1-viability (curve rank): 0
[2]
  tox21-ar-mda-kb2-luc-antagonist-p2-viability (curve rank): 0
[3]
  tox21-ar-mda-kb2-luc-agonist-p3-viability (curve rank): 0
[4]
  tox21-car-antagonist-p1-viability (curve rank): 0
[5]
  tox21-are-bla-p1-viability (curve rank): 0
[6]
  tox21-ap1-agonist-p1-viability (curve rank): 0

## Cc1c(NC(C)C)c(=O)n(-c2ccccc2)n1C [Ramifenazone]
[1]
  tox21-car-agonist-p1-viability (curve rank): 0
[2]
  tox21-ar-mda-kb2-luc-antagonist-p2-viability (curve rank): 0
[3]
  tox21-ar-mda-kb2-luc-agonist-p3-viability (curve rank): 0
[4]
  tox21-car-antagonist-p1-viability (curve rank): 0
[5]
  tox21-are-bla-p1-viability (curve rank): 0
[6]
  tox21-ap1-agonist-p1-viability (curve rank): 0
